Results taken from ChEMBL document CHEMBL1157355, “Recent advances on phosphodiesterase 4 inhibitors for the treatment of asthma and chronic obstructive pulmonary disease” (J Med Chem, 2008).
One block for each molecule: values may come before it.

Key:
Blood = assay: Inhibition of TNFalpha release in human whole blood; type: functional, tissue-based; settings: read-out: IC50
[1] = Cmax in ferret; type: ADME, organism-based, Mustela putorius furo; settings: in vivo
[2] = Oral bioavailability in rat at 3 mg/kg after 6 hrs; type: ADME, organism-based; settings: in vivo
Ovis aries [3] = assay: Inhibition of ascaris-induced bronchoconstriction in sheep at 2 mg/kg, iv; type: functional
[4] = Half life in squirrel monkey; type: ADME, organism-based, Saimiri sciureus; settings: in vivo
Squirrel monkey [5] = assay: Inhibition of ascaris-induced bronchoconstriction in squirrel monkey at 0.5 mg/kg, po; type: functional; settings: Saimiri sciureus, in Primates
Cavia porcellus [6] = assay: Inhibition of ovalbumin-induced bronchoconstriction in guinea pig at 1 mg/kg, ip; type: functional; settings: route intraperitoneal
Rhesus monkey [7] = assay: Reduction in neutrophil response to antigen challenge in atopic monkey at 10 mg/kg, po; type: functional, Macaca mulatta; parameters: scale not given: the % may be the effect or the level left
Cavia porcellus [8] = assay: Inhibition of aerosolized antigen-induced airway obstruction in po dosed guinea pig; type: functional
Rhesus monkey [9] = assay: Reduction in eosinophil response to antigen challenge in atopic monkey at 10 mg/kg, po; type: functional, Macaca mulatta; parameters: scale not given: the % may be the effect or the level left
Rhesus monkey [10] = assay: Reduction in IL1-beta response to antigen challenge in atopic monkey at 10 mg/kg, po; type: functional, Macaca mulatta; parameters: scale not given: the % may be the effect or the level left
Ovis aries [11] = assay: Inhibition of ascaris-induced late bronchoconstriction in sheep at 0.5 mg/kg, iv; type: functional
[12] = Half life in dog; type: ADME, organism-based, Canis lupus familiaris; settings: in vivo
Cavia porcellus [13] = assay: Inhibition of ovalbumin-induced bronchoconstriction in guinea pig at 0.1 mg/kg, ip; type: functional; settings: route intraperitoneal
[14] = Half life in rat; type: ADME, organism-based; settings: in vivo
Ovis aries [15] = assay: Inhibition of ascaris-induced early bronchoconstriction in sheep at 0.5 mg/kg, iv; type: functional
Squirrel monkey [16] = assay: Inhibition of ascaris-induced bronchoconstriction in squirrel monkey at 3 mg/kg, po; type: functional; settings: Saimiri sciureus, in Primates
[17] = Inhibition of PDE4 in dog trachea; type: tissue-based, Canis lupus familiaris
Phosphodiesterase 3 = Phosphodiesterase 3 (Homo sapiens, UniProt Q14432+Q13370); assay: Inhibition of PDE3 in human platelet
[18] = Binding affinity to PDE4 catalytic domain
[19] = Inhibition of PDE4
[20] = molecular target: 3',5'-cyclic-AMP phosphodiesterase 4A (Homo sapiens, UniProt P27815); assay: Inhibition of GST-tagged PDE4A
Sequence of 3',5'-cyclic-AMP phosphodiesterase 4A (P27815 whole entry): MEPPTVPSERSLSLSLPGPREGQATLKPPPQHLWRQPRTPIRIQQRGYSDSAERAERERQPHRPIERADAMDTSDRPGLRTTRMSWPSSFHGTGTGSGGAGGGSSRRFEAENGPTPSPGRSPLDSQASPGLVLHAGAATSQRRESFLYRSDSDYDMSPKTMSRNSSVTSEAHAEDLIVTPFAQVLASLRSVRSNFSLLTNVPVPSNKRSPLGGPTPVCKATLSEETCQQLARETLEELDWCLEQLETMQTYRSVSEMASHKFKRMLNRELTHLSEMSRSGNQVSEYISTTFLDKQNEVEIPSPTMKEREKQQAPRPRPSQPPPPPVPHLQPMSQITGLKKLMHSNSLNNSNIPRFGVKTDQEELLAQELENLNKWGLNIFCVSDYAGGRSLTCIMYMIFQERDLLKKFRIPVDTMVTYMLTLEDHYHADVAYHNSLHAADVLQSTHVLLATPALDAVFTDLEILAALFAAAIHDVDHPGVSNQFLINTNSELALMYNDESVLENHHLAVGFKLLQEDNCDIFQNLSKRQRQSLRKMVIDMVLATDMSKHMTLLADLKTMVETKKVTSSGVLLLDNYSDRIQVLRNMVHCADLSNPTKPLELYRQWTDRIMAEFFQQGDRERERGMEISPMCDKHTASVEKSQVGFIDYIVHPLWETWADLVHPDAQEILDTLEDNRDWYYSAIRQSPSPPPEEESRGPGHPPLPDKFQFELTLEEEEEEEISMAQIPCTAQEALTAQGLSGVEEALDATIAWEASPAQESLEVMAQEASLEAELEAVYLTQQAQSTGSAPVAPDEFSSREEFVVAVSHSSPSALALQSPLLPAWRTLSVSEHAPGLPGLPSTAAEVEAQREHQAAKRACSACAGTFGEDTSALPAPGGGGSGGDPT

Rattus norvegicus [21] = assay: Inhibition of LPS-induced TNFalpha production in po dosed rat; type: functional
Rattus norvegicus [22] = species on record: Rattus norvegicus; assay: Reduction in antigen-induced eosinophil recruitment in Brown-Norway rat model; type: functional
[23] = Displacement of [3H]rolipram from PDE4 by RBA
Rattus norvegicus [24] = assay: Inhibition of LPS-induced pulmonary inflammation in rat at 3 mg/kg, po; type: functional
[25] = Inhibition of PDE10
[26] = Inhibition of PDE11
Phosphodiesterase 4 = Phosphodiesterase 4 (Homo sapiens, UniProt P27815+Q08499+Q07343+Q08493); assay: Inhibition of PDE4 in human eosinophil; type: protein assay
[27] = Selectivity for PDE4D3 over PDE4D2
[28] = Selectivity for PDE4D3 over PDE4A
[29] = Selectivity for PDE4D5 over PDE4A
[30] = molecular target: 3',5'-cyclic-AMP phosphodiesterase 4B (Homo sapiens) (UniProt Q07343); assay: Inhibition of PDE4B
Sequence of 3',5'-cyclic-AMP phosphodiesterase 4B (Homo sapiens) (Q07343 whole entry): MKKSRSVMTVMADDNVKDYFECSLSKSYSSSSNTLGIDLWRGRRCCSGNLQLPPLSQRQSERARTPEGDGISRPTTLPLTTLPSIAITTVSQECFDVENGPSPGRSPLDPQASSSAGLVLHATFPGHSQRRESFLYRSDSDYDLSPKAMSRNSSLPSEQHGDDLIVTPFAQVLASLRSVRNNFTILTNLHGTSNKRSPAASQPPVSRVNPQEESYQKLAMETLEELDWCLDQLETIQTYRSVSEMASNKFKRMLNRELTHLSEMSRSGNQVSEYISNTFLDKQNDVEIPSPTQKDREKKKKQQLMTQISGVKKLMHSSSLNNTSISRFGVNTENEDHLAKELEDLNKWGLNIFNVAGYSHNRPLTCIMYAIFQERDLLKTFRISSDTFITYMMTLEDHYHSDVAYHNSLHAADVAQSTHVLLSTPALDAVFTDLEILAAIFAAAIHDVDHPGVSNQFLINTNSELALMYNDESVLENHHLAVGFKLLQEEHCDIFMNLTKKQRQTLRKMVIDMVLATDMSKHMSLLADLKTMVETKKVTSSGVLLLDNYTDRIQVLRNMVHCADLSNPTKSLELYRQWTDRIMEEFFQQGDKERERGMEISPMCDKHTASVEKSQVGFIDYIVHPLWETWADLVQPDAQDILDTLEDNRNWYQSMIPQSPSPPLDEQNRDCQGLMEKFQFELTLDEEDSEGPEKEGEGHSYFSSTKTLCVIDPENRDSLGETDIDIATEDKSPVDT

[31] = Selectivity for PDE4B over PDE4A
[32] = Selectivity for PDE4D5 over PDE4D2
[33] = molecular target: T1, 3',5'-cyclic-AMP phosphodiesterase 4D (Homo sapiens, UniProt Q08499); assay: Inhibition of PDE4D3
T1 sequence (Q08499 whole entry): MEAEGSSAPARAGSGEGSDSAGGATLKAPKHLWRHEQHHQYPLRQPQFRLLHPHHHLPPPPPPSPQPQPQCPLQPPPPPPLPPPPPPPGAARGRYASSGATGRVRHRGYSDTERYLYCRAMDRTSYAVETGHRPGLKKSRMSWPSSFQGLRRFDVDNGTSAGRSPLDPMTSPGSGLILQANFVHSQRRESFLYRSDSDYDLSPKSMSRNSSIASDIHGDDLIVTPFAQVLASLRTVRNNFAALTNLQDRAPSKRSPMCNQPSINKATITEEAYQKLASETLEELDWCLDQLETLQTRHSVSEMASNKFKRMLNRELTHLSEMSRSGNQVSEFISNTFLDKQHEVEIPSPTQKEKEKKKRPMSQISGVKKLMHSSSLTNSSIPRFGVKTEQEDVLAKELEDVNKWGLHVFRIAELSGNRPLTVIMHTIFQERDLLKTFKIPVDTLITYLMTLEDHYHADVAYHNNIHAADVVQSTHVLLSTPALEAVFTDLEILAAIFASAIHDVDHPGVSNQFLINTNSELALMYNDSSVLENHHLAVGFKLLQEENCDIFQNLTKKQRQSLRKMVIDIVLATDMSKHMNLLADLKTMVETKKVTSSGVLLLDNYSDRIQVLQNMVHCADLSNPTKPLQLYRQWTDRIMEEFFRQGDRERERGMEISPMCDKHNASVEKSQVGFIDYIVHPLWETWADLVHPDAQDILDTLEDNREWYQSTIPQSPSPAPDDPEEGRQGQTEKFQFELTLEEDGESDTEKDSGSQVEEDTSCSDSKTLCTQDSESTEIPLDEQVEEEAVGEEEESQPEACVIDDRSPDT

[34] = Selectivity for PDE4B over PDE4D2
[35] = molecular target: T1, 3',5'-cyclic-AMP phosphodiesterase 4D; assay: Inhibition of PDE4D5
[36] = Selectivity for PDE4D over PDE4B
Rattus norvegicus [37] = assay: Inhibition of gastric emptying in po dosed rat; type: functional; settings: Stomach, read-out: ID50 (the source's name)
[38] = Selectivity for PDE4D over PDE4C
[39] = Selectivity for PDE4D over PDE4A
Rattus norvegicus [40] = assay: Inhibition of TNFalpha production in rat at 10 mg/kg, po; type: functional
Mustela putorius furo = species on record: Mustela putorius furo; assay: Plasma concentration in ferret; type: ADME, organism-based; settings: in vivo
[41] = Oral bioavailability in dog; type: ADME, organism-based, Canis lupus familiaris; settings: in vivo

SMILES: Cc1c[n+]([O-])ccc1CC(c1ccc(C(O)(C(F)(F)F)C(F)(F)F)cc1)c1ccc(OC(F)F)c(OC(F)F)c1 (stereo not given)
bioavailability [2]: 60% | inhibition in vivo at 2 mg/kg (Ovis aries [3]): 62% | half-life [4]: 36 h | inhibition in vivo at 0.5 mg/kg (Squirrel monkey [5]): 26% | inhibition in vivo at 1 mg/kg (Cavia porcellus [6]): 82%

SMILES: CCc1nn(C2CCCC2)c2c1CCN(c1ccccc1C)C2=O
Activity (Rhesus monkey [7]): 65% | ED50 (Cavia porcellus [8]): 2 mg/kg | Activity (Rhesus monkey [9]): 55% | Activity (Rhesus monkey [10]): 82%

SMILES: [O-][n+]1ccc(CC(c2ccc(C(O)(C(F)(F)F)C(F)(F)F)cc2)c2ccc(OC(F)F)c(OC(F)F)c2)cc1 (stereo not given)
inhibition in vivo at 0.5 mg/kg (Ovis aries [11]): 97% | half-life [12]: > 48 h | inhibition in vivo at 0.1 mg/kg (Cavia porcellus [13]): 54% | half-life [14]: > 48 h | inhibition in vivo at 0.5 mg/kg (Ovis aries [15]): 64% | inhibition in vivo at 2 mg/kg (Ovis aries [3]): 85% | half-life [4]: > 48 h | inhibition in vivo at 1 mg/kg (Cavia porcellus [6]): 58% | inhibition in vivo at 3 mg/kg (Squirrel monkey [16]): 96%

SMILES: COc1cc(-c2ccc(=O)[nH]n2)ccc1OC(F)F [ZARDAVERINE]
pIC50 [17]: 6.8 | pIC50 (Phosphodiesterase 3): 6.24

SMILES: COc1ccc(C2CNC(=O)C2)cc1OC1CCCC1 (stereo not given) [ROLIPRAM]
Ki [18]: 60 nM

SMILES: COc1ccc(C(=O)Nc2c(Cl)cncc2Cl)c2cccnc12
IC50 [19]: 170 nM

SMILES: Cc1cc2c3c(c1)C(c1ccccc1)=N[C@@H](NC(=O)c1ccncc1)C(=O)N3CC2
IC50 [19]: 1100 nM

SMILES: Nc1cc2c3c(c1)C(c1ccccc1)=N[C@@H](NC(=O)c1cccnc1)C(=O)N3CC2
ED50 (Rattus norvegicus [21]): 2.8 mg/kg | IC50 [19]: 270 nM | ED50 (Rattus norvegicus [22]): 3.2 mg/kg

SMILES: COc1cc2c3c(c1)C(c1ccccc1)=N[C@@H](NC(=O)c1cccnc1)C(=O)N3CC2
IC50 [19]: 4300 nM

SMILES: COCc1nc2c(OC)ccc(C(=O)Nc3c(Cl)cncc3Cl)c2[nH]1
Ki [23]: 25 nM

SMILES: COc1ccc(-c2nc(C(=O)N3CCN(c4ncccn4)CC3)c(CN)o2)c2ccc(C(F)(F)F)nc12
inhibition in vivo at 3 mg/kg (Rattus norvegicus [24]): 64% | IC50 [25]: 430 nM | IC50 [26]: 2000 nM

SMILES: Cc1noc(/C(=C/c2cccc(-c3cc(C(C)(C)S(C)(=O)=O)cc4cccnc34)c2)c2ccc(S(C)(=O)=O)cc2)n1
IC50 [19]: 3 nM

SMILES: COc1ccc(Cn2cnc(N)c3nc(C(C)(C)OCc4ccsc4)nc2-3)cc1OC1CCCC1
Selectivity ratio [27]: 20 | Selectivity ratio [28]: 20 | Selectivity ratio [29]: 20 | Activity [30]: 6 nM | Selectivity ratio [31]: 20 | Selectivity ratio [32]: 20 | Activity [33]: 6 nM | Selectivity ratio [34]: 20 | Activity [35]: 6 nM

SMILES: COc1ccc([C@]2(C#N)CC[C@@H](C(=O)O)CC2)cc1OC1CCCC1 [CILOMILAST]
IC50 (Blood): 840 nM | Selectivity ratio [36]: 10 | IC50 [19]: 65 nM | ED50 (Rattus norvegicus [37]): 4.7 mg/kg | Selectivity ratio [38]: 10 | Selectivity ratio [39]: 10

Further lines, with some results ahead:

IC50 (Blood): 8300 nM | Cmax [1]: 200 nM
SMILES: COc1cccc(-c2cc(Cc3ccncc3)cc3cccnc23)c1

IC50 [19]: 13 nM
SMILES: CCCc1nc(NC)n2ncc(Cc3ccccc3OC)c2n1

IC50 [20]: 0.8 nM
SMILES: CC(C)(Nc1ccc(C(Cc2cc[n+]([O-])cc2)c2ccc(OC(F)F)c(OC(F)F)c2)cc1)c1ccccc1 (stereo not given)

IC50 [19]: 4200 nM | Ki [23]: 1020 nM
SMILES: Cc1ccccc1-n1c(=O)n(Cc2cccs2)c(=O)c2[nH]cnc21

IC50 (Blood): 2500 nM | IC50 [19]: 1100 nM
SMILES: COc1ccc(C(CC(N)=O)N2C(=O)c3ccccc3C2=O)cc1OC1CCCC1 (stereo not given) [CDC-801]

IC50 (Phosphodiesterase 4): 30 nM
SMILES: CCc1nn(-c2ccc(F)cc2)c2c1CCN(c1ccccc1)C2=O

IC50 [19]: 40 nM
SMILES: Cc1nn(C)c2ncc(C(N)=O)c(Nc3ccccc3)c12
inhibition in vivo at 10 mg/kg (Rattus norvegicus [40]): 48%

Cp (Mustela putorius furo): 152 ng/mL | bioavailability [41]: 3%
SMILES: CCc1nn(C2CCCC2)c2c1CCn1c(-c3cccs3)nnc1-2 [TOFIMILAST]
